Results published in patent US9636317B2, “Compositions and methods of use of phorbol esters” (priority 2007, dated 2017).
“And” between values parts separate entries of the source, which are not always exact repeats. Identical values can stand only once.

Assays:
[1] = tested on: circulating white blood cells and neutrophils; settings: patients whose bone marrow function has been depressed by chemotherapy; cited from earlier work
[2] = Third clinical study of HIV+ patients: periphery blood profile; assay type: in vivo, human; settings: one value per patient
Experimental: Each patient in the study received 150 μg of TPA in 200 ml of sterile saline by intravenous infusion over a 1.5 to 2 hour period daily for 60 days for a total administered dose of 9.0 mg. Following completion of the 60 days of TPA therapy, these patients remained under observation for an additional 60 days though the received no further treatment.
CD3, CD4 and CD8 levels in peripheral blood were quantitated prior to starting treatment, and again at 30 and 60 days using flow cytometry and the appropriate antibodies obtained from B.D. Bioscience, San Diego, Calif. Viral load was determined using conventional methods at Kuang Ann men Hospital, Beijing, China. Patients RBC, WBC, platelets and hemoglobin levels were also measured. […]

[3] = Dose ranging study: toxicity and side effects of TPA doses given clinically by i.v. infusion; assay type: in vivo, human
Experimental: Due to the strong local irritation caused by TPA application, TPA was given to patients by intravenous (i.v.) infusion. TPA solution in a sterile syringe was injected into 200 ml of sterile saline and mixed well for i.v. infusion.
One mg TPA in solution was mixed well with 200 ml of sterile saline for intravenous infusion which was completed in 1 h at the rate of 16 μg/min. […] The above symptoms could be alleviated by giving the patients glucocorticoids. […] However, these side effects were short lived and reversible. The cardiac, hepatic, renal and pulmonary functions were all found to be normal.
0.5 mg of TPA in solution was mixed well with 200 ml of saline for intravenous infusion which was completed in 1 h at the rate of 8 μg/min. […] The patients tolerated the lower dose more easily. […] Difficulty in breathing was not observed. The cardiac, hepatic, renal and pulmonary functions were all normal.
0.25 mg of TPA in solution was mixed well with 200 ml of saline for intravenous infusion which was completed in 1 h at the rate of 4 μg/min. […] The cardiac, hepatic, renal and pulmonary functions were all normal.

[4] = Treatment of prostate hypertrophy (patient case); assay type: in vivo, human
Experimental: Patient eight, diagnosed with prostate hypertrophy. They were injected with 1 ampoule containing 0.19 mg of TPA (0.125 mg/m^2) every other day for four weeks, then 0.24 mg of TPA (1.25×0.125 mg/m^2) every other day for 2 weeks, and 0.26 mg of TPA (1.5×0.125 mg/m^2) every other day for an additional 3 weeks. Their PSA index is now below 3.0.

[5] = tested on: CD3, CD4, CD8; test: Second clinical study of HIV+ patients: CD3, CD4, CD8; assay type: in vivo, human; set-up: CD4 / CD8 / CD3: unit not given here; settings: for CD4 / CD3 / CD8: one value per patient
Experimental: Nine of the patients in Example III were given a second treatment of TPA. Of these nine, seven were asymptomatic at the beginning of the second trial. A tenth patient (patient #2a) who was symptomatic and had not previously been treated with TPA was added to the study. Each patient was administered a weight adjusted dosage of TPA (75 μg/sq m) in 200 ml of sterile saline intravenously over one hour. This dosage was given to each patient once a day for ten consecutive days followed by a rest period of ten days for three cycles and a total of 30 doses of TPA. Patients 5a, 6a, and 8a stopped taking anti-AIDS drugs one month prior to beginning the TPA treatment and beginning again one month after the third cycle. Patients 1-4-a, 7a, and 9a-10a continued taking anti-AIDS drugs throughout the treatment.
Blood samples were taken three days prior to starting treatment, after completing the first 10 day cycle of TPA infusion and again after the last TPA infusion and CD3, CD4, CD8, WBC, RBC, HGB and platelets were measured.

[6] = tested on: CD3, CD4 and CD8 in peripheral blood; test: First clinical study of HIV+ patients: CD3, CD4, CD8 levels by flow cytometry; assay type: in vivo, human; set-up: CD4 / CD8 / CD3: unit not given here; settings: for CD3 / CD4 / CD8: one value per patient
Experimental: Twelve symptomatic patients (five males and seven females) between the ages of 35 to 52 all of whom were infected with HIV in 1995 through blood transfusion and were refractory to standard treatments for HIV were treated with TPA. Each patient was administered a weight adjusted dosage of TPA (75 μg/sq m) in 200 ml of sterile saline by i.v. over one hour. This dose was administered once daily for the first three days of treatment. Each patient was then given this dose every other day for days 4 to 18 followed by a six month rest period prior to a second course of treatment according to the same protocol.
[…] Levels of CD3, CD4 and CD8 in peripheral blood were measured using monoclonal antibodies (Becton Dickson Scientific Co., Franklin Lakes, N.J.) and a flow cytometer (B.D. Bioscience, San Diego, Calif.).

[7] = tested on: metastatic liver cancer; test: Treatment of liver cancer (patient case); assay type: in vivo, human; settings: three injections of 0.19 mg TPA; before 50,000+
Source text: Patient X, age ? was diagnosed with metastatic liver cancer. Their initial alpha fetoprotein level was 48,813. They were given chemotherapy and radiation treatments but their alpha fetoprotein level remained elevated at 50,000+.

[8] = After first 10-day TPA infusion cycle
[9] = After third 10-day TPA infusion cycle
[10] = Four days after TPA, 75 μg/sq m i.v.

In the case of CCCCCCCCCCCCCC(=O)O[C@@H]1[C@@H](C)[C@@]2(O)[C@@H](C=C(CO)C[C@]3(O)C(=O)C(C)=C[C@@H]23)[C@@H]2C(C)(C)[C@]12OC(C)=O [TPA, 12-O-tetradecanoylphorbol-13-acetate], the “circulating white blood cells and neutrophils” value [1] is listed as “increase in circulating white blood cells and neutrophils”, the PLt ([2]; Fifteen Days After TPA) is listed as 1.69e+11 L⁻¹ and 2.19e+11 L⁻¹ and 4.15e+11 L⁻¹ and 1.51e+11 L⁻¹ and 2.08e+11 L⁻¹ and 2.4e+11 L⁻¹ and the RBC ([2]; Fifteen Days After TPA) is listed as 4.03e+12 L⁻¹ and 3.41e+12 L⁻¹ and 3.65e+12 L⁻¹ and 2.98e+12 L⁻¹ and 3.69e+12 L⁻¹ and 3.88e+12 L⁻¹. For the same molecule, the Rb ([2]; Fifteen Days After TPA) was 114 g/L and 101 g/L and 142 g/L and 118 g/L and 141 g/L and 140 g/L, the WBC ([2]; Fifteen Days After TPA) was 4.1 ×10^9/L and 5 ×10^9/L and 8.1 ×10^9/L (2×) and 6.4 ×10^9/L and 9 ×10^9/L and the PLt ([2]; Forty Days After TPA) was 3.04e+11 L⁻¹ and 1.52e+11 L⁻¹ and 2.62e+11 L⁻¹ and 2.91e+11 L⁻¹ and 1.31e+11 L⁻¹ and 1.49e+11 L⁻¹. For the same molecule, the RBC ([2]; Forty Days After TPA) was 3.9e+12 L⁻¹ and 4.44e+12 L⁻¹ and 4.13e+12 L⁻¹ and 3.86e+12 L⁻¹ and 3.49e+12 L⁻¹ and 4.14e+12 L⁻¹, the Rb ([2]; Forty Days After TPA) was 125 g/L and 109 g/L and 110 g/L and 124 g/L and 116 g/L and 131 g/L and the WBC ([2]; Forty Days After TPA) was 4.6 ×10^9/L (2×) and 3.9 ×10^9/L (2×) and 6.2 ×10^9/L and 4.9 ×10^9/L. The PLt ([2]; Sixty Days After TPA) was 2.21e+11 L⁻¹ and 2.27e+11 L⁻¹ and 2.39e+11 L⁻¹ and 2.76e+11 L⁻¹ and 1.21e+11 L⁻¹ and 2.22e+11 L⁻¹, the RBC ([2]; Sixty Days After TPA) was 4.55e+12 L⁻¹ and 4.31e+12 L⁻¹ and 4.04e+12 L⁻¹ and 4.1e+12 L⁻¹ and 3.34e+12 L⁻¹ and 4.56e+12 L⁻¹ and the Rb ([2]; Sixty Days After TPA) was 126 g/L and 96 g/L and 99 g/L (2×) and 123 g/L and 136 g/L. The WBC ([2]; Sixty Days After TPA) was 8.8e+09 L⁻¹ and 4.4e+09 L⁻¹ and 6.2e+09 L⁻¹ and 5.1e+09 L⁻¹ and 7.7e+09 L⁻¹ and 3.5e+09 L⁻¹, the PLt ([2]; Thirty Days After Stopping TPA) was 2.72e+11 L⁻¹ and 1.93e+11 L⁻¹ and 2.78e+11 L⁻¹ and 2.24e+11 L⁻¹ and 1.78e+11 L⁻¹ and the RBC ([2]; Thirty Days After Stopping TPA) was 4.55e+12 L⁻¹ and 4.4e+12 L⁻¹ and 3.9e+12 L⁻¹ and 4.71e+12 L⁻¹ and 3.42e+12 L⁻¹. For the same molecule, the Rb ([2]; Thirty Days After Stopping TPA) was 130 g/L and 104 g/L and 110 g/L and 144 g/L and 100 g/L, the WBC ([2]; Thirty Days After Stopping TPA) was 7.5e+09 L⁻¹ and 6.5e+09 L⁻¹ and 8.4e+09 L⁻¹ and 3.8e+09 L⁻¹ and 4.8e+09 L⁻¹ and the PLt ([2]; Thirty Days After TPA) was 2.32e+11 L⁻¹ and 2.47e+11 L⁻¹ and 3.45e+11 L⁻¹ and 1.77e+11 L⁻¹ and 2.28e+11 L⁻¹ and 2.75e+11 L⁻¹. For the same molecule, the RBC ([2]; Thirty Days After TPA) was 4.48e+12 L⁻¹ and 3.83e+12 L⁻¹ and 4.03e+12 L⁻¹ and 3.2e+12 L⁻¹ and 4.32e+12 L⁻¹ and 4.35e+12 L⁻¹, the Rb ([2]; Thirty Days After TPA) was 116 g/L and 113 g/L and 145 g/L and 121 g/L and 154 g/L and 148 g/L and the WBC ([2]; Thirty Days After TPA) was 5.9e+09 L⁻¹ and 5.2e+09 L⁻¹ and 4.3e+09 L⁻¹ and 4e+09 L⁻¹ and 4.5e+09 L⁻¹ and 8.9e+09 L⁻¹. For the same molecule, the “Hb in the urine” value ([3]; 0.25 mg/patient ×4/week) was “No Hb was detected in the urine”, the “cardiac, hepatic, renal and pulmonary functions” value (from here on “cardiac, hepatic”) ([3]; 0.25 mg/patient ×4/week) was “normal” and the chills and fever ([3]; 0.25 mg/patient ×4/week) was “observed, but to a much lesser extent than with the higher dosages”. The difficulty in breathing ([3]; 0.25 mg/patient ×4/week) was “no patient suffered difficulty in breathing”, the “Hb in the urine” value ([3]; 0.5 mg/patient ×2/week) was “Occasionally, Hb was detected in patients' urine” and the “cardiac, hepatic” value ([3]; 0.5 mg/patient ×2/week) was “normal”. The difficulty in breathing ([3]; 0.5 mg/patient ×2/week) was “not observed”, the “Hb in the urine” value ([3]; 1 mg/patient/week) was “Hb was detected in the urine” and the bleeding ([3]; 1 mg/patient/week) was “caused a minority of patients to bleed”. The “cardiac, hepatic” value ([3]; 1 mg/patient/week) was “normal”, the difficulty in breathing ([3]; 1 mg/patient/week) was “several patients suffered for a short period of time difficulty in breathing” and the duration of fever ([3]; 1 mg/patient/week i.v. infusion) was 3 to 5 h. For the same molecule, the “patients' temperature (fever)” value ([3]; 1 mg/patient/week i.v. infusion in 1 h) was 37.5-39.5 °C, the duration of chills ([3]; 1 mg/patient/week i.v. infusion, start one hour after administration) was “about 30 min” and the PSA index ([4]; 0.19, 0.24, 0.26 mg TPA every other day over 9 weeks) was “below 3.0”. For the same molecule, the appearance ([4]; same patient) was “developed a more youthful appearance”, the CD4 ([5]; After first 10-day TPA infusion cycle, 75 μg/sq m i.v. daily) was 76 and 460 and 189 and 91 and 285 and 729 and 519 and 136 and 74 and 7 and the CD3 [5, 8] was 476 and 1200 and 823 and 1598 and 758 and 3148 and 1143 and 712 and 333 and 1323. For the same molecule, the CD8 [5, 8] was 335 and 729 and 584 and 1507 and 429 and >2000 and 547 and 574 and 261 and 907, the CD3 [5, 9] was 625 and 2033 and 1193 and 1257 and 938 and 3347 and 1295 and 1317 and 308 and 2037 and the CD4 [5, 9] was 137 and 1002 and 205 and 94 and 276 and 786 and 495 and 100 and 63 and 19. The CD8 [5, 9] was 543 and 980 and 916 and 1127 and 466 and >2000 and 733 and 1221 and 208 and 1129, the “CD3 (summary of Table 3)” value ([5]; after the first and third infusion with TPA) was “increase in CD3 in all patients” and the CD3 ([6]; After TPA (patients 09-12)) was 2920 and 1077 and 874 and 362. The CD4 ([6]; After TPA (patients 09-12)) was 663 and 445 and 131 and 78, the CD8 ([6]; After TPA (patients 09-12)) was <2000 and 591 and 724 and 268 and the CD3 ([6]; Forty two days after TPA) was 799 and 424 and 581 and 1643 and 537 and 146 and 858 and 203. For the same molecule, the CD4 ([6]; Forty two days after TPA) was 54 and 33 and 44 and 191 and 49 and 1 and 241 and 2, the CD8 ([6]; Forty two days after TPA) was 700 and 374 and 493 and 1429 and 429 and 139 and 527 and 111 and the CD3 [6, 10] was 427 and 941 and 1282 and 808 and 598 and 739 and 299 and 2616. For the same molecule, the CD4 [6, 10] was 36 and 123 and 119 and 179 and 7 and 318 and 3 and 105, the CD8 [6, 10] was 366 and 770 and 1330 and 570 (2×) and 355 and 180 and <2000 and the “change in CD3, CD4, or CD8 levels (summary of Table 1)” value ([6]; twelve patients) was “no consistent change or correlation was observed”. For the same molecule, the alpha fetoprotein levels [7] was “returned to normal levels within four months”.
